The values below come from patent US20050009840A1 (SUGEN, INC., priority 2003, published 2005).

T1 sequence (P08581 974-1390 limits assumed): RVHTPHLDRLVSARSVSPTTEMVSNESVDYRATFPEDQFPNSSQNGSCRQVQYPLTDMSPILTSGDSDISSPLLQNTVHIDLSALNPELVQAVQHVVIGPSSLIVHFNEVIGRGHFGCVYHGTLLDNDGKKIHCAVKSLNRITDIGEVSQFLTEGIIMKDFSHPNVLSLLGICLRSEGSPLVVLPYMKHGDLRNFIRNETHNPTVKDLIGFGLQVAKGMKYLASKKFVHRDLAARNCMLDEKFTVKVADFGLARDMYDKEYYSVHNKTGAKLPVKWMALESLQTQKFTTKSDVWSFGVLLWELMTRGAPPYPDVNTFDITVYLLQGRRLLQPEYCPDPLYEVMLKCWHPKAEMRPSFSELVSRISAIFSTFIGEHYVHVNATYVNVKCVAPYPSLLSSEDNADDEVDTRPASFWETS

One experiment addresses T1, HGFR (Homo sapiens, UniProt P08581).
T1 construct: purchased Upstate 14-526
Nature of the experiment: HGFR continuous-coupled spectrophotometric assay. The experiment is classed as biochemical. The settings on record: at 1 pM; Table 6, library procedure 41; read-out: % Inhibition (percent c-MET inhibition).
`Nc1ncc(C(=O)NCCCN2CCOCC2)cc1OCc1c(Cl)cccc1Cl` [Example L-177]: the inhibition – broadly, the drop in the measured response relative to a control, in per cent – at 1 pM turned out to be 26%.

`Nc1ncc(C(=O)NCc2ccc(S(N)(=O)=O)cc2)cc1OCc1c(Cl)cccc1Cl` [Example L-178]: the inhibition at 1 pM is 30%.

`CN1CCN(CCCNC(=O)c2cnc(N)c(OCc3c(Cl)cccc3Cl)c2)CC1` [Example L-179]: the inhibition at 1 pM was 24%.

Turning to `Nc1ncc(C(=O)NCCCO)cc1OCc1c(Cl)cccc1Cl` [Example L-180], the inhibition at 1 pM was 26%.

Consider `Nc1ncc(C(=O)NCCN2CCOCC2)cc1OCc1c(Cl)cccc1Cl` [Example L-181], for which the inhibition at 1 pM is 31%.

With `Nc1ncc(C(=O)NC(CO)Cc2ccc(Cl)cc2)cc1OCc1c(Cl)cccc1Cl` [Example L-182], the inhibition at 1 pM stood at 27%.

As for `COc1ccccc1CNC(=O)c1cnc(N)c(OCc2c(Cl)cccc2Cl)c1` [Example L-183], the inhibition at 1 pM was 32%.

The experiment is the same for the next values; noted with them: at 50 nM; Table 5, library procedure 40; read-out: % inhibition (percent c-MET inhibition).
Turning to `COc1cc(CNC(=O)c2ccc(-c3cnc(N)c(OC(C)c4c(Cl)ccc(F)c4Cl)c3)cc2)cc(OC)c1` [Example L-113], the inhibition at 0.05 µM was determined as 57%.

As to `CCCCN(C)C(=O)c1ccc(-c2cnc(N)c(OC(C)c3c(Cl)ccc(F)c3Cl)c2)cc1` [Example L-115], the inhibition at 0.05 µM turned out to be 63%.

For `CC(C)OCCCNC(=O)c1ccc(-c2cnc(N)c(OC(C)c3c(Cl)ccc(F)c3Cl)c2)cc1` [Example L-116], the inhibition at 0.05 µM was found to be 62%.

Take `CC(C)CNC(=O)c1ccc(-c2cnc(N)c(OC(C)c3c(Cl)ccc(F)c3Cl)c2)cc1` [Example L-117]: the inhibition at 0.05 µM is 60%.

Regarding `CCN(CCN(C)C)C(=O)c1ccc(-c2cnc(N)c(OC(C)c3c(Cl)ccc(F)c3Cl)c2)cc1` [Example L-118], the inhibition at 0.05 µM is 86%.

Turning to `CCOCCNC(=O)c1ccc(-c2cnc(N)c(OC(C)c3c(Cl)ccc(F)c3Cl)c2)cc1` [Example L-120], the inhibition at 0.05 µM was found to be 63%.

As to `CC(Oc1cc(-c2ccc(C(=O)NCc3ccc(CN(C)C)cc3)cc2)cnc1N)c1c(Cl)ccc(F)c1Cl` [Example L-121], the inhibition at 0.05 µM is 75%.

Regarding `CC(Oc1cc(-c2ccc(C(=O)NCC3CC3)cc2)cnc1N)c1c(Cl)ccc(F)c1Cl` [Example L-122], the inhibition at 0.05 µM was 61%.

For the molecule `CC(Oc1cc(-c2ccc(C(=O)N3CCC(N(C)C)C3)cc2)cnc1N)c1c(Cl)ccc(F)c1Cl` [Example L-123], the inhibition at 0.05 µM turned out to be 80%.

On to `CC(Oc1cc(-c2ccc(C(=O)N(C)C)cc2)cnc1N)c1c(Cl)ccc(F)c1Cl` [Example L-125], for which the inhibition at 0.05 µM is 77%.

As to `CCN(C)C(=O)c1ccc(-c2cnc(N)c(OC(C)c3c(Cl)ccc(F)c3Cl)c2)cc1` [Example L-126], the inhibition at 0.05 µM came to 52%.

Turning to `CCCN1CCN(C(=O)c2ccc(-c3cnc(N)c(OC(C)c4c(Cl)ccc(F)c4Cl)c3)cc2)CC1` [Example L-129], the inhibition at 0.05 µM is 82%.

Take `CC(Oc1cc(-c2ccc(C(=O)N(C)C3CCCC3)cc2)cnc1N)c1c(Cl)ccc(F)c1Cl` [Example L-130]: the inhibition at 0.05 µM came to 60%.

As to `Cc1ccnc(NC(=O)c2ccc(-c3cnc(N)c(OC(C)c4c(Cl)ccc(F)c4Cl)c3)cc2)c1` [Example L-131], the inhibition at 0.05 µM is 61%.

Turning to `CC(Oc1cc(-c2ccc(C(=O)NCCc3cccnc3)cc2)cnc1N)c1c(Cl)ccc(F)c1Cl` [Example L-133], the inhibition at 0.05 µM was found to be 68%.

Take `CC(Oc1cc(-c2ccc(C(=O)N3CCN(C(C)C)CC3)cc2)cnc1N)c1c(Cl)ccc(F)c1Cl` [Example L-134]: the inhibition at 0.05 µM was found to be 76%.

Turning to `COCCN1CCN(C(=O)c2ccc(-c3cnc(N)c(OC(C)c4c(Cl)ccc(F)c4Cl)c3)cc2)CC1` [Example L-135], the inhibition at 0.05 µM was found to be 76%.

For `CC(Oc1cc(-c2ccc(C(=O)N3CCC(C(=O)c4ccccc4)CC3)cc2)cnc1N)c1c(Cl)ccc(F)c1Cl` [Example L-136], the inhibition at 0.05 µM turned out to be 61%.

With `CCN(CC)CCN1CCN(C(=O)c2ccc(-c3cnc(N)c(OC(C)c4c(Cl)ccc(F)c4Cl)c3)cc2)CC1` [Example L-137], the inhibition at 0.05 µM is 78%.

On to `CC(CN(C)C)NC(=O)c1ccc(-c2cnc(N)c(OC(C)c3c(Cl)ccc(F)c3Cl)c2)cc1` [Example L-138], for which the inhibition at 0.05 µM is 83%.

Regarding `CC1CCC(NC(=O)c2ccc(-c3cnc(N)c(OC(C)c4c(Cl)ccc(F)c4Cl)c3)cc2)CC1` [Example L-139], the inhibition at 0.05 µM came to 60%.

`CC(C)OCCNC(=O)c1ccc(-c2cnc(N)c(OC(C)c3c(Cl)ccc(F)c3Cl)c2)cc1` [Example L-140]: the inhibition at 0.05 µM came to 141%.

As to `CC(Oc1cc(-c2ccc(C(=O)N3CCC(CO)CC3)cc2)cnc1N)c1c(Cl)ccc(F)c1Cl` [Example L-141], the inhibition at 0.05 µM came out at 79%.

Take `CC(Oc1cc(-c2ccc(C(=O)N3CCC(CCO)CC3)cc2)cnc1N)c1c(Cl)ccc(F)c1Cl` [Example L-142]: the inhibition at 0.05 µM turned out to be 72%.

In the case of `CC(C)CN(C)C(=O)c1ccc(-c2cnc(N)c(OC(C)c3c(Cl)ccc(F)c3Cl)c2)cc1` [Example L-143], the inhibition at 0.05 µM is 59%.

Consider `Cc1cccc(CN(C)C(=O)c2ccc(-c3cnc(N)c(OC(C)c4c(Cl)ccc(F)c4Cl)c3)cc2)n1` [Example L-144], for which the inhibition at 0.05 µM was found to be 71%.

In the case of `COC(=O)CN(C)C(=O)c1ccc(-c2cnc(N)c(OC(C)c3c(Cl)ccc(F)c3Cl)c2)cc1` [Example L-145], the inhibition at 0.05 µM came out at 77%.

As for `CC(Oc1cc(-c2ccc(C(=O)N3CCN(CC(=O)N(C)C)CC3)cc2)cnc1N)c1c(Cl)ccc(F)c1Cl` [Example L-146], the inhibition at 0.05 µM is 89%.

For `CC(Oc1cc(-c2ccc(C(=O)N3CCN(C4CCN(C)CC4)CC3)cc2)cnc1N)c1c(Cl)ccc(F)c1Cl` [Example L-147], the inhibition at 0.05 µM was determined as 96%.

Regarding `CC(Oc1cc(-c2ccc(C(=O)NCc3ccc(C(F)(F)F)nc3)cc2)cnc1N)c1c(Cl)ccc(F)c1Cl` [Example L-148], the inhibition at 0.05 µM is 62%.

Take `CC(Oc1cc(-c2ccc(C(=O)NCCCc3c[nH]nc3O)cc2)cnc1N)c1c(Cl)ccc(F)c1Cl` [Example L-150]: the inhibition at 0.05 µM came to 81%.

With `CC(Oc1cc(-c2ccc(C(=O)N3CCC(Oc4ccccc4)CC3)cc2)cnc1N)c1c(Cl)ccc(F)c1Cl` [Example L-151], the inhibition at 0.05 µM stood at 58%.

Regarding `CC(Oc1cc(-c2ccc(C(=O)N3CCS(=O)(=O)CC3)cc2)cnc1N)c1c(Cl)ccc(F)c1Cl` [Example L-153], the inhibition at 0.05 µM was 95%.

For `CC(Oc1cc(-c2ccc(C(=O)NCCN3[C@H](C)CCC[C@@H]3C)cc2)cnc1N)c1c(Cl)ccc(F)c1Cl` (stereo partly drawn) [Example L-154], the inhibition at 0.05 µM is 77%.

As for `CC(Oc1cc(-c2ccc(C(=O)NCC3(N(C)C)CCOCC3)cc2)cnc1N)c1c(Cl)ccc(F)c1Cl` [Example L-155], the inhibition at 0.05 µM is 66%.

Regarding `CC(Oc1cc(-c2ccc(C(=O)NC3CCOCC3)cc2)cnc1N)c1c(Cl)ccc(F)c1Cl` [Example L-156], the inhibition at 0.05 µM is 73%.

With `C#CCCN1CCN(C(=O)c2ccc(-c3cnc(N)c(OC(C)c4c(Cl)ccc(F)c4Cl)c3)cc2)CC1` [Example L-157], the inhibition at 0.05 µM is 77%.

Take `CC(Oc1cc(-c2ccc(C(=O)Nc3ccc(-n4ccnc4)cc3)cc2)cnc1N)c1c(Cl)ccc(F)c1Cl` [Example L-158]: the inhibition at 0.05 µM came out at 63%.

For the molecule `CC(Oc1cc(-c2ccc(C(=O)NCC(c3cccnc3)N(C)C)cc2)cnc1N)c1c(Cl)ccc(F)c1Cl` [Example L-159], the inhibition at 0.05 µM was found to be 78%.

For `CC(Oc1cc(-c2ccc(C(=O)N3CCC(c4cccnc4)C3)cc2)cnc1N)c1c(Cl)ccc(F)c1Cl` [Example L-161], the inhibition at 0.05 µM amounted to 79%.

Regarding `CC(Oc1cc(-c2ccc(C(=O)NCCC3CCOCC3)cc2)cnc1N)c1c(Cl)ccc(F)c1Cl` [Example L-162], the inhibition at 0.05 µM was 66%.

Turning to `CC(Oc1cc(-c2ccc(C(=O)N3CCN(CCS(C)(=O)=O)CC3)cc2)cnc1N)c1c(Cl)ccc(F)c1Cl` [Example L-163], the inhibition at 0.05 µM is 83%.

As for `CC(Oc1cc(-c2ccc(C(=O)NC(CO)c3cccnc3)cc2)cnc1N)c1c(Cl)ccc(F)c1Cl` [Example L-164], the inhibition at 0.05 µM worked out at 61%.

Turning to `CC(Oc1cc(-c2ccc(C(=O)N3CCN(CC4CCN(C)CC4)CC3)cc2)cnc1N)c1c(Cl)ccc(F)c1Cl` [Example L-165], the inhibition at 0.05 µM was 88%.

For the molecule `CC(Oc1cc(-c2ccc(C(=O)NCCc3nc(-c4ccncc4)c[nH]3)cc2)cnc1N)c1c(Cl)ccc(F)c1Cl` [Example L-166], the inhibition at 0.05 µM came to 67%.

Turning to `CCNC(=O)c1ccc(-c2cnc(N)c(OC(C)c3c(Cl)ccc(F)c3Cl)c2)cc1` [Example L-167], the inhibition at 0.05 µM was found to be 66%.

As to `CC(Oc1cc(-c2ccc(C(=O)N3CCNC(=O)C3)cc2)cnc1N)c1c(Cl)ccc(F)c1Cl` [Example L-168], the inhibition at 0.05 µM stood at 90%.

Regarding `COC1CCN(C(=O)c2ccc(-c3cnc(N)c(OC(C)c4c(Cl)ccc(F)c4Cl)c3)cc2)CC1` [Example L-169], the inhibition at 0.05 µM came to 79%.

Regarding `CC(Oc1cc(-c2ccc(C(=O)NCCCN(C)C3CCCCC3)cc2)cnc1N)c1c(Cl)ccc(F)c1Cl` [Example L-170], the inhibition at 0.05 µM is 77%.

Regarding `CC(Oc1cc(-c2ccc(C(=O)NCCN(C)C3CCCCC3)cc2)cnc1N)c1c(Cl)ccc(F)c1Cl` [Example L-171], the inhibition at 0.05 µM was 69%.

As for `CC(Oc1cc(-c2ccc(C(=O)N3CCC(CO)C3)cc2)cnc1N)c1c(Cl)ccc(F)c1Cl` [Example L-172], the inhibition at 0.05 µM is 79%.

Turning to `CC(Oc1cc(-c2ccc(C(=O)NCC3CCOCC3)cc2)cnc1N)c1c(Cl)ccc(F)c1Cl` [Example L-173], the inhibition at 0.05 µM was determined as 63%.

Take `C[C@H](Oc1cc(-c2ccc(C(=O)N[C@H]3CC[C@H](CO)CC3)cc2)cnc1N)c1c(Cl)ccc(F)c1Cl` [Example L-174]: the inhibition at 0.05 µM was 68%.

Turning to `CC(Oc1cc(-c2ccc(C(=O)N3CCC(COCC4CC4)CC3)cc2)cnc1N)c1c(Cl)ccc(F)c1Cl` [Example L-175], the inhibition at 0.05 µM came out at 60%.

Turning to `Cc1noc([C@H]2CC[C@H](CNC(=O)c3ccc(-c4cnc(N)c(O[C@@H](C)c5c(Cl)ccc(F)c5Cl)c4)cc3)CC2)n1` [Example L-176], the inhibition at 0.05 µM amounted to 51%.
